Experimental data from patent US20230167155A1, “COMPOSITIONS AND METHODS” (KING'S COLLEGE LONDON, priority 2020, published 2023).
“Also recorded” adds a separate entry of the source. [ ]: non-standard residue; d: D form. The star is where a group is joined. Orn = NCCC[C@H](N)C(=O)O; 2Furoyl = O=C(c1ccco1)*

Key:
macrophages = test: Sensitivity of macrophages to IFNγ (iNOS expression, flow cytometry); assay type: cell-based; details: 100 microM, thrombin 50 iu
Protocol: In more detail, mechanistic insights: direct effect on monocyte/macrophage phenotype. Sensitivity of macrophages to IFNγ, as assessed by the proportion that express iNOS after stimulation.
The enhanced sensitivity to IFNγ induced by thrombin is inhibited by a PAR-1 antagonist—this is via expression of ABCA1 and membrane lipid rafts. […] BMM purified cells cultured in MCSF for 5 days. Cells then removed for 24 hours and incubated with thrombin (50 units) (if an antagonist or 3-mercaptopropionyl-F-Cha-Cha-RKPNDK was used cells were incubated for 2 hours with the antagonist or 3MP prior to thrombin stimulation to allow time for antagonist to dock with PAR). Cells then had media replaced with thrombin+ PAR reagent and IFN gamma at the dose described. For the PAR2 experiments it was at this point that PAR2 was added. Cells were then incubated for 24 further hours and then analysed by flow cytometry for iNOS. Pure PAR-1 antagonist (αagonist)=FLLRN; Pure PAR-2 agonist=2-Furoyl-LIGRLO-amide; 3-MP=3-mercaptopropionyl-F-Cha-Cha-RKPNDK; All used at 100 microM. Thrombin used at 50 iu

C57BL/6 mice = test: Delayed type hypersensitivity, contact sensitivity to oxazolone (ear swelling); assay type: in vivo, mouse; details: WT mice, reagent at second exposure to oxazolone, ear thickness 24 hours later
Protocol: C57BL/6 mice were topically sensitised with oxazolone on the shaved abdomen on day 0. Treatment with either saline, PTL060 (10 mg/g), equimolar PTL0GC-1 or equimolar *3-MP was given on day 3 and day 5, the last immediately prior to re-challenge with oxazolone onto the right ear. The left ear was treated with vehicle alone. On day 6, the difference in swelling of the right and left ears was measured and is presented as D mean ear thickness.
This example uses a model of contact hypersensitivity. Here, mice are challenged on the abdomen with the contact sensitizer oxazolone, before a re-challenge […] on both sides of the ear with oxazolone (on the right) or vehicle alone (on the left).
Swelling of the ears, measured with a micrometer, reflects the influx of monocytes/macrophages and T cells in a typical delayed-type hypersensitivity (DTH) response.
FIG. 19: Model of DTH involving contact sensitivity to oxazolone. WT mice were administered a PAR-1 agonist or antagonist at the point of second exposure to oxazolone, before ear thickness was assessed 24 hours later, and mice sacrificed for immunohistological analysis of cross sections of the affected ears, to determine the proportional area occupied by CD68+ cells (macrophages). *p<0.05. **p<0.01. ***p<0.001

SOCS3 = SOCS3 expression of macrophages; assay type: cell-based
Source text: This is a well-described inhibitor of IFNγ signalling. In the right graph, the thrombin-induced sensitivity to IFNγ, as assessed by change in iNOS expression, is shown.

[1] = test system: Mouse primary smooth muscle cells (SMCs) or endothelial cells (EC); test: In vitro secretion of chemokines by SMC/EC after PAR reagents; assay type: cell-based; design: secretion of MIF (and CCL-2) compared with PAR-1 agonists / secretion of CX3CL1 (and CCL5) compared with a PAR-1 agonist: dose or concentration left out as unconfirmed; details: SMC, 12 hour stimulation, 48 hour culture
Protocol: (§1) In more detail, Mechanistic insights—monocyte recruitment: In vitro secretion of chemokines by PAR-1 and PAR-2 agonists. Mouse primary smooth muscle cells (SMCs) or endothelial cells (EC) at a density of 1×10^6 cells/well of a 24-well plate were serum-starved for 24 hours before addition of FLLRN (PAR-1 […], 10 μM), 2-Furoyl-LIGRLO-Amide (PAR-2 agonist, 10 μM) or 3-MP (3-mercaptopropionyl-F-Cha-Cha-RKPNDK 10 μM) for 12 hours, following which thrombin (10 nM) was added for 1 hour, before a final 48 hours incubation in 2% FCS DMEM. Supernatants of stimulated cells were collected to measure MIF, CCL2, CCL5 and CX3CL1 using ELISA, following manufacturer's protocol.
(§2) FIG. 22: Secretion of MIF and CX3CL1 by SMC after 12 hour stimulation with either a pure PAR-1 agonist, pure PAR-2 agonist, or by 3-mercaptoproprionyl(MP)—F-Cha-Cha-RKPNDK amide, followed by 48 hour culture period. All used at […]. Patterns of secretion of CCL-2 resemble those of MIF, whereas secretion of CCL5 resembles CX3CL1.

ApoE−/− mice = details: 30-week-old animals; cited from earlier work
murine SMC = test: Thrombin-induced secretion of chemokines by SMC with PAR reagents; assay type: cell-based, mouse; design: thrombin-mediated MIF (and CCL-2) secretion / thrombin-mediated CX3CL1 secretion: dose or concentration left out as unconfirmed
Protocol: as §1, with “[…] ,” for “following which thrombin (10 nM) was added for 1 hour,”
In more detail, mechanistic insights—monocyte recruitment: In vitro secretion of chemokines by thrombin—differential impact of PAR-1 antagonist and 3-mercaptopropionyl-F-Cha-Cha-RKPNDK. Secretion of chemokines from murine SMC after stimulation with thrombin alone (nil), or in presence of a pure PAR-1 antagonist, or 3-MP*.
as §2
Chemokines measured 48 hours later. Secretion of CCL-2 resembles that of MIF, whereas secretion of CCL5 resembles CX3CL1.

[2] = target: T1, protease activated receptor 1 (PAR-1) (UniProt P30558)
T1 sequence: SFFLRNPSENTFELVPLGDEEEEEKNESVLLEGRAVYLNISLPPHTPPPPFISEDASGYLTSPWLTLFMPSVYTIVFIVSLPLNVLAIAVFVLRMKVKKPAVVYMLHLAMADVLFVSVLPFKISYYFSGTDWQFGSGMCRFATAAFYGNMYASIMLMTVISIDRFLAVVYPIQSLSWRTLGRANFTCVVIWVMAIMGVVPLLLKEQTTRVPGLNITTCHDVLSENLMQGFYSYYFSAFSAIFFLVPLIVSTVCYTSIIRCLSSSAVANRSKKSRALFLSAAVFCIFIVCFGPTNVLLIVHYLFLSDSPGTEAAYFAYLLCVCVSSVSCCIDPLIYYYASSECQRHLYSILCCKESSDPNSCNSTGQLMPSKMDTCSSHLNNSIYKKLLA

Compound: 2-Furoyl-LIGRLO-amide (2Furoyl-LIGRL[Orn]-NH2) [PAR-2 agonist]
- enhanced sensitivity of macrophages to IFNγ induced by thrombin (iNOS) (macrophages): reduces the sensitivity of macrophages to IFNγ induced by thrombin; also recorded: dampens the enhanced sensitivity
- ear swelling (C57BL/6 mice): inhibits
- SOCS3 expression (SOCS3): induces SOCS3 expression
- secretion of CX3CL1 (and CCL5) compared with a PAR-1 agonist [1]: stimulated better
- secretion of MIF (and CCL-2) compared with PAR-1 agonists [1]: less so

Compound: N=C(N)c1ccc(CNC(=O)[C@@H]2CCN2C(=O)[C@H](NCC(=O)O)C2CCCCC2)cc1 [Megalatran]
- burden of advanced atheromatous lesions (ApoE−/− mice): reduced burden of advanced atheromatous lesions

Compound: FLLRN [PAR-1 antagonist]
- thrombin-mediated CX3CL1 secretion (murine SMC; SMC, 12 hour): inhibited
- thrombin-mediated MIF (and CCL-2) secretion (murine SMC; SMC, 12 hour): inhibited equally
- thrombin-induced secretion of CX3CL1 and CCL5 reduced by (murine SMC; murine SMC, 10 μM, thrombin 10 nM): 50%
- enhanced sensitivity of macrophages to IFNγ induced by thrombin (iNOS) (macrophages): inhibited
- ear swelling (C57BL/6 mice): inhibited

Compound: FSLLRY-NH2 trifluoroacetate salt [PAR-2 antagonist]
- ear swelling (C57BL/6 mice): exacerbates

Compound: thrombin
- MIF and CCL2 production by cultured mouse SMCs after stimulation by thrombin (ELISA) [2]: thrombin-mediated chemokine expression was primarily via PAR-1
